Test results published in the supplement of paper PMC10307832.

Experiments:
Assay in all cases: relative viability (nuclei count vs DMSO), 5 days (fraction); higher = more cells survive
Kobe2602 + Vorinostat = compound: C1=CC(=CC=C1NC(=S)NNC2=C(C=C(C=C2[N+](=O)[O-])C(F)(F)F)[N+](=O)[O-])F [Kobe2602] + O=C(CCCCCCC(=O)Nc1ccccc1)NO [Vorinostat] (partner 1 µM)
In short: (§1)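 Medians of duplicate plates are given as relative viability. That measure is the nuclei count in treated wells divided by the count in vehicle wells. Counts were taken on 4× images of lung cancer cell lines in 1536-well plates, 5 days after pin-tool dosing the day after seeding with one drug alone or a fixed anchor-drug dose plus five library-drug doses (not always all listed) in √10 steps.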

Kobe2602 + OSI-027 = compound: C1=CC(=CC=C1NC(=S)NNC2=C(C=C(C=C2[N+](=O)[O-])C(F)(F)F)[N+](=O)[O-])F [Kobe2602] + COc1cccc2cc(-c3nc([C@H]4CC[C@H](C(=O)O)CC4)n4ncnc(N)c34)[nH]c12 [OSI-027] (partner 0.5 µM)
In short: as §1

Kobe2602 + Pemetrexed = compound: C1=CC(=CC=C1NC(=S)NNC2=C(C=C(C=C2[N+](=O)[O-])C(F)(F)F)[N+](=O)[O-])F [Kobe2602] + Nc1nc2[nH]cc(CCc3ccc(C(=O)N[C@@H](CCC(=O)O)C(=O)O)cc3)c2c(=O)[nH]1 [Pemetrexed] (partner 0.2 µM)
In short: as §1

[1] = compound: COc1cc2nccc(Oc3ccc(NC(=O)C4(C(=O)Nc5ccc(F)cc5)CC4)cc3)c2cc1OC [Cabozantinib] + CS(=O)(=O)N1CCN(Cc2cc3nc(-c4cccc5[nH]ncc45)nc(N4CCOCC4)c3s2)CC1 [Pictilisib] (partner 1 µM)
In short: as §1

Cell Line	relative viability (Kobe2602 + Vorinostat; first compound 0.2 µM)	relative viability (Kobe2602 + Vorinostat; first compound 0.6325 µM)	relative viability (Kobe2602 + Vorinostat; first compound 2 µM)	relative viability (Kobe2602 + Vorinostat; first compound 6.325 µM)	relative viability (Kobe2602 + Vorinostat; first compound 20 µM)	relative viability (Kobe2602 + OSI-027; first compound 0.2 µM)	relative viability (Kobe2602 + OSI-027; first compound 0.6325 µM)	relative viability (Kobe2602 + OSI-027; first compound 2 µM)	relative viability (Kobe2602 + OSI-027; first compound 6.325 µM)	relative viability (Kobe2602 + OSI-027; first compound 20 µM)	relative viability (Kobe2602 + Pemetrexed; first compound 0.2 µM)	relative viability (Kobe2602 + Pemetrexed; first compound 0.6325 µM)	relative viability (Kobe2602 + Pemetrexed; first compound 2 µM)	relative viability (Kobe2602 + Pemetrexed; first compound 6.325 µM)	relative viability (Kobe2602 + Pemetrexed; first compound 20 µM)	relative viability ([1]; first compound 0.02 µM)	relative viability ([1]; first compound 0.06325 µM)	relative viability ([1]; first compound 0.2 µM)	relative viability ([1]; first compound 0.6325 µM)	relative viability ([1]; first compound 2 µM)
LXF-289	0.677	0.776	0.75	0.659	0.775	0.836	0.836	0.777	0.879	0.87	0.871	0.896	0.88	0.861	0.896	0.74	0.727	0.783	0.69	0.693
NCI-H23	0.616	0.645	0.628	0.544	0.729	0.499	0.673	0.541	0.638	0.667	0.653	0.8	0.82	0.584	0.742		0.476	0.402	0.358	0.427
NCI-H322M	0.958	1.03	0.851	0.849	0.921	0.573	0.623	0.544	0.559	0.557	0.63	0.646	0.605	0.652	0.631	0.443	0.548		0.572	0.526
NCI-H358	0.706	0.733	0.586	0.719	0.689	0.754	0.872	0.873	0.672	0.887	0.196	0.208	0.17	0.166	0.178	0.318	0.35	0.386	0.387	0.373
NCI-H441	0.756	0.711	0.808	0.646	0.697	0.616	0.563	0.536	0.631	0.783	0.285	0.217	0.244	0.279	0.288	0.459	0.512	0.49	0.581	0.404
NCI-H460		0.702	0.705	0.724	0.68	0.662	0.722	0.695	0.629	0.558		0.0647	0.0722	0.0653	0.0677	0.232	0.44	0.379	0.23	0.439
NCI-H520	0.702	0.775	0.637	0.691	0.731	0.281	0.287	0.227	0.235	0.266	0.709	0.675	0.559	0.724	0.772	0.318	0.291	0.28	0.312	0.376
NCI-H596	0.591	0.726	0.63	0.659	0.68	0.802	0.698	0.661	0.56	0.815	0.541	0.523	0.568	0.505	0.495	0.389	0.408	0.388	0.27	0.374
NCI-H647	0.613	0.582	0.64	0.583	0.601	0.647	0.751	0.57	0.841	0.639	0.178	0.22	0.174	0.172	0.184	0.434	0.571	0.481	0.362	0.398
NCI-H650	0.466	0.411	0.421	0.499	0.434	0.514	0.593	0.477	0.529	0.527	0.816	1.04	0.867	1.05	0.889	0.765	1.02	1.02	0.774	0.868
NCI-H661	0.777	0.799	0.753	0.825	0.827	0.691	0.71	0.731	0.8	0.672	0.893	0.947	0.913	0.932	0.924	0.301	0.476	0.391	0.394	0.331
NCI-H838	0.68	0.767	0.654	0.703	0.683	0.427	0.433	0.397	0.417	0.371	0.257	0.251	0.261	0.246	0.232	0.499	0.574	0.529	0.394	0.417
NCI-H1355	0.589	0.687	0.577	0.588	0.622	0.395	0.389	0.411	0.41	0.441	1.06	1.07	0.992	0.983	0.968	0.49	0.442	0.453	0.432	0.526
NCI-H1395	0.786	1.04	0.733	0.666	0.93	0.633	0.866	0.717	0.731	0.651	1.04	1.01	0.931	0.967	0.843	0.657	0.644	0.609	0.675	0.689
NCI-H1437	0.855	0.739	0.78	0.791	0.625	0.913	0.913	0.891	0.949	0.855	0.303	0.317	0.313	0.298	0.295	0.382	0.474	0.486	0.471	0.429
NCI-H1650	0.598	0.617	0.642	0.539	0.527	0.546	0.756	0.546	0.631	0.676	0.394	0.355	0.363	0.335	0.374	0.515	0.709	0.606	0.536	0.532
